Data set [1] in a line: Fluorescence quenching counter-screen. The format is physicochemical. As to conditions: 10 μM fluorophore; 32 nM-100 μM compound. The procedure:
Selected test compounds were assessed for fluorescence quenching using adaptions of previously published procedures[9],[24]. Briefly, test compounds and individual fluorophore standards were incubated together. The fluorescence intensity of these mixtures was compared to the fluorescence intensity of the same fluorophore standards minus test compounds. Each microplate contained positive control columns (DMSO plus fixed concentration of a single fluorophore), negative control columns (DMSO), and experimental wells (test compounds plus fixed concentration of a single fluorophore). […] Final concentration of DMSO was constant at 2.0% (v/v). […] All measurements were performed in ALARM NMR buffer (25 mM sodium phosphate, pH 7.0) at 25 °C. Aliquots of 20 μL buffer were dispensed into microplate wells via ThermoFisher Multidrop dispenser. Microplates were shaken for 1 min on a plate shaker, centrifuged briefly for 1 min at 1000×g, then allowed to incubate at RT for 10 min before measuring fluorescence intensity on a SpectraMax M3 plate reader under reduced lighting. Instrument settings for each fluorophore were unchanged from the aforementioned autofluorescence studies.

Data set [2] can be described thus: Autofluorescence counter-screen. As to conditions: for Fluorescence counter-screen: autofluorescence at eight fluorophore settings, 32 nM-100 μM compound. The format is physicochemical. The procedure: Selected test compounds were assessed for autofluorescence using an adaption of published procedures. […] Final concentration of DMSO was constant at 1.0% (v/v). Compounds and fluorophore standards were transferred as 10 mM DMSO stock solutions to 384-well black polystyrene microplates via Echo 550 dispenser. The plate arrangement was purposefully designed to minimize optical crosstalk by fluorophore standards. All measurements were performed in ALARM NMR buffer (25 mM sodium phosphate, pH 7.0) at 25 °C. Aliquots of 20 μL buffer were dispensed into microplate wells via ThermoFisher Multidrop dispenser. Compounds were shaken for 1 min on a plate shaker, centrifuged briefly for 1 min at 1000×g, then allowed to incubate at RT in buffer for 10 min before measuring fluorescence intensity on a SpectraMax M3 plate reader under reduced lighting. […] Bandwidth filters were set to default mode. Fluorescence intensity was measured for each test compound using each of the eight fluorophore standard settings. Fluorophores present on each plate were then used to construct normalized fluorescence dose-responses (“fluorophore-equivalent concentrations”, FEC). Fluorescence intensity for each test compound was converted to the appropriate FEC.
In general terms: Counterscreens check selectivity or assay interference.

A short description of data set [3]: UPLC-MS gross compound stability in assay buffer. To be noted: 25 mM sodium phosphate, pH 7.0, 30 °C, no GSH or CoA. The procedure: Select compounds were incubated up to 24 h for additional stability analyses. Chromatograms and mass spectra were qualitatively analyzed for the formation of new peaks and/or loss of parent peaks.
A short description of another data set: Absorbance spectra. The format is physicochemical. As to conditions: for Absorption max (nm) / Absorbance counter-screen: 25 mM sodium phosphate, pH 7.0; for Absorbance counter-screen: 300-750 nm; for Molar absorptivity: at absorption max. Here is the method: Selected test compounds were assessed for absorption between 300 and 750 nm. Most compound absorption spectra were obtained at 100, 50, and 10 μM final compound concentrations in ALARM NMR buffer (25 mM sodium phosphate, pH 7.0). Final concentration of DMSO was constant at 2.0% (v/v). Compounds were allowed to incubate at RT in buffer for 10 min in UV-transparent polystyrene 384-well plates. Absorbance spectra were then obtained on a SpectraMax M3 or BMG Labtech CLARIOstar microplate reader at 25 °C. Significant absorbance was defined as molar absorptivity constants greater than 2000 M^−1 cm^−1 at wavelengths greater than 300 nm.

The target in another data set is T1, AmpC β-lactamase (Escherichia coli, UniProt P00811).
T1 construct: Recombinant E. coli AmpC (amino acids 20–377); purchased MyBioSource.com
In words: biochemical. Also on record: species or system E. coli. As to conditions: for AmpC counter-screen result / AmpC aggregation counter-screen: 10 μM compound; for AmpC counter-screen result: detergent-sensitive modulation; for AmpC aggregation counter-screen: ± 0.01% Triton X-100; for inhibition at 10 µM: read-out: % Inhibition, AmpC. The procedure: Selected compounds were assessed for aggregation using a modified AmpC β-lactamase counter-screen[24],[32],[64]. Recombinant E. coli AmpC (amino acids 20–377) was obtained from MyBioSource.com. Testing was performed in ALARM NMR buffer (25 mM sodium phosphate, pH 7.0) in flat-bottom UV-transparent 96-well microplates in 150 μL reaction volumes. Compounds were tested in triplicate at 10 μM final concentrations in either the presence or absence of freshly-prepared 0.01% Triton X-100 (v/v). Final concentration of DMSO was 2.0% (v/v). Compounds were incubated with ~5 nM AmpC in 147 μL reaction buffer for 5 min at RT, followed by the addition of 3 μL of nitrocefin substrate (100 μM final concentration). Reaction solutions were gently mixed by pipetting up and down three times using a multichannel pipette. […] Percent activity was normalized to DMSO-only controls. Fluconazole and lidocaine were included as negative aggregation control compounds. Rottlerin was included as a positive aggregation control compound. Aggregators were defined as compounds with significant detergent-dependent changes in AmpC activity (t-test, adjusted P-value <0.05; mean differences greater than 30%). Activators were defined as compounds that increased AmpC enzymatic activity.

As a reminder, the inhibition is the relative decrease from the control value, in per cent.

T1 sequence (P00811 20-377): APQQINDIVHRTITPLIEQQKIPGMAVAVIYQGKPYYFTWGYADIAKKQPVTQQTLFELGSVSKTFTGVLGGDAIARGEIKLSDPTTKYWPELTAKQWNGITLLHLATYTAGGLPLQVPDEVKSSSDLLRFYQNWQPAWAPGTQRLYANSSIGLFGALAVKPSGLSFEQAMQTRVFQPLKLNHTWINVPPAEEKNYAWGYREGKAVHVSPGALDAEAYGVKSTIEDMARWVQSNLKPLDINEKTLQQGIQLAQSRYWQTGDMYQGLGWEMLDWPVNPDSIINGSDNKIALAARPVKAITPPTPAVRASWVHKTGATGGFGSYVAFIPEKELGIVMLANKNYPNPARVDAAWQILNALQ

`CC1=NN(c2ccc(C(=O)O)cc2)C(=O)/C1=C/c1ccc(-c2cc(C)c(C)cc2[N+](=O)[O-])o1` [Compound 1, C646]: the Quenching counter-screen entry in data set [1] is listed as “Flagged (Significant fluorescence quenching was defined as signal reduction greater than 25% of the corresponding fluorophore signal at any test compound concentration)”. Further, the Fluorescence counter-screen result in data set [2] was “Negative”. Besides, the “UPLC-MS buffer stability counter-screen” value in data set [3] is on record as “Gross degradation observed; loss of parent peak, appearance of new peaks”. In “Absorbance spectra”, the “Absorption max (nm)” value is on record as 405 nm, the Absorbance counter-screen result is recorded as “Flagged (Significant absorbance was defined as molar absorptivity constants greater than 2000 M^−1 cm^−1 at wavelengths greater than 300 nm)” and the “Molar absorptivity” value stood at 18000 M⁻¹ cm⁻¹. At AmpC β-lactamase, the “AmpC counter-screen result” value is “likely aggregators”, the AmpC aggregation counter-screen entry is reported as “Detergent-sensitive (activator)” and the inhibition at 10 µM is -58 ± 56%.

As for `O=c1c2cccnc2sn1Cc1ccc(C(F)(F)F)cc1` [Compound 3, PU141], the Quenching counter-screen entry in data set [1] is reported as “Negative”. In addition, in data set [2], the Fluorescence counter-screen entry is listed as “Flagged (Significant autofluorescence was defined as compounds with FECs greater than 100 nM at any compound concentration)”. Further, the Fluorophore interference in data set [2] (fluorophore settings with autofluorescence) is reported as 4MU, AlexaFluor 350. Besides, the “UPLC-MS buffer stability counter-screen” value in data set [3] was “Grossly stable”. In the data set “Absorbance spectra”, the “Absorption max (nm)” value was determined as 315 nm, the Absorbance counter-screen entry is reported as “Flagged (Significant absorbance was defined as molar absorptivity constants greater than 2000 M^−1 cm^−1 at wavelengths greater than 300 nm)” and the “Molar absorptivity” value was 2700 M⁻¹ cm⁻¹. The AmpC aggregation counter-screen entry on AmpC β-lactamase is given as “Detergent-insensitive”.

With `Cc1cc(O)cc(C)c1C=C1C(=O)N(Cc2ccccc2)C(=O)N(Cc2ccccc2)C1=O` [Compound 4, EML425], the Quenching counter-screen result in data set [1] was “Flagged (Significant fluorescence quenching was defined as signal reduction greater than 25% of the corresponding fluorophore signal at any test compound concentration)”. Besides, the Fluorescence counter-screen entry in data set [2] is “Negative”. In addition, in data set [3], the “UPLC-MS buffer stability counter-screen” value is recorded as “Grossly stable”. In “Absorbance spectra”, the “Absorption max (nm)” value is 425 nm, the Absorbance counter-screen entry is “Flagged (Significant absorbance was defined as molar absorptivity constants greater than 2000 M^−1 cm^−1 at wavelengths greater than 300 nm)” and the “Molar absorptivity” value worked out at 2700 M⁻¹ cm⁻¹. For the same compound, at AmpC β-lactamase, the “AmpC counter-screen result” value is “likely aggregators” and the AmpC aggregation counter-screen result is “Detergent-sensitive (Aggregators were defined as compounds with significant detergent-dependent changes in AmpC activity (t-test, adjusted P-value <0.05; mean differences greater than 30%))”.

Regarding `CCCCCCCCCCCCCCCc1cccc(O)c1C(=O)O` [Compound 14, Anacardic acid], the Quenching counter-screen entry in data set [1] is given as “Flagged (Significant fluorescence quenching was defined as signal reduction greater than 25% of the corresponding fluorophore signal at any test compound concentration)”. In addition, in data set [2], the Fluorescence counter-screen result is given as “Negative”. In the data set “Absorbance spectra”, the “Absorption max (nm)” value is 305 nm and the Absorbance counter-screen result is “Negative”. In addition, the AmpC aggregation counter-screen result on AmpC β-lactamase is reported as “Detergent-sensitive (Aggregators were defined as compounds with significant detergent-dependent changes in AmpC activity (t-test, adjusted P-value <0.05; mean differences greater than 30%))”.

As to `CCCCCCCc1ccc(CCc2cccc(O)c2C(=O)O)cc1` [Compound 15, MG 149], the Quenching counter-screen result in data set [1] is given as “Flagged (Significant fluorescence quenching was defined as signal reduction greater than 25% of the corresponding fluorophore signal at any test compound concentration)”. In addition, in data set [2], the Fluorescence counter-screen entry is listed as “Negative”. Moreover, in “Absorbance spectra”, the “Absorption max (nm)” value was determined as 300 nm and the Absorbance counter-screen result is recorded as “Negative”. Further, at AmpC β-lactamase, the “AmpC counter-screen result” value is reported as “negative” and the AmpC aggregation counter-screen entry is recorded as “Detergent-insensitive”.

Regarding `Cc1cc2c(C(C)C)c(O)c(O)c(C=O)c2c(O)c1-c1c(C)cc2c(C(C)C)c(O)c(O)c(C=O)c2c1O` [Compound 16, Gossypol], in data set [1], the Quenching counter-screen result is on record as “Flagged (Significant fluorescence quenching was defined as signal reduction greater than 25% of the corresponding fluorophore signal at any test compound concentration)”. In data set [2], the Fluorescence counter-screen entry is listed as “Negative”. Moreover, in the data set “Absorbance spectra”, the “Absorption max (nm)” value was 385 nm, the Absorbance counter-screen result was “Flagged (Significant absorbance was defined as molar absorptivity constants greater than 2000 M^−1 cm^−1 at wavelengths greater than 300 nm)” and the “Molar absorptivity” value came to 22000 M⁻¹ cm⁻¹. Moreover, the AmpC aggregation counter-screen entry on AmpC β-lactamase was “Detergent-sensitive (Aggregators were defined as compounds with significant detergent-dependent changes in AmpC activity (t-test, adjusted P-value <0.05; mean differences greater than 30%))”.

In the case of `COc1cc(/C=C/c2cc(/C=C/c3ccc(O)c(OC)c3)n(-c3ccc(C(=O)[O-])cc3)n2)ccc1O.[Na+]` [Compound 17, CTK7A], the Quenching counter-screen result in data set [1] is “Flagged (Significant fluorescence quenching was defined as signal reduction greater than 25% of the corresponding fluorophore signal at any test compound concentration)”. The Fluorescence counter-screen entry in data set [2] was “Negative”. In “Absorbance spectra”, the “Absorption max (nm)” value is given as 325 nm, the Absorbance counter-screen entry is listed as “Flagged (Significant absorbance was defined as molar absorptivity constants greater than 2000 M^−1 cm^−1 at wavelengths greater than 300 nm)” and the “Molar absorptivity” value was 30000 M⁻¹ cm⁻¹. Moreover, at AmpC β-lactamase, the AmpC aggregation counter-screen entry is given as “Detergent-sensitive (activator)” and the inhibition at 10 µM is -52 ± 35%.

On to `Cl.Cl.O=C(O)Cn1nnc(-c2ccc(CN(CCCCOc3ccc(CN4CCCC4)cc3)CCc3ccccc3)cc2)n1` [Compound 20, TH1834], for which the Quenching counter-screen result in data set [1] was “Flagged (Significant fluorescence quenching was defined as signal reduction greater than 25% of the corresponding fluorophore signal at any test compound concentration)”. In addition, the Fluorescence counter-screen entry in data set [2] is on record as “Negative”. Besides, in “Absorbance spectra”, the “Absorption max (nm)” value is reported as “Nominal” and the Absorbance counter-screen entry is listed as “Negative”. Further, on AmpC β-lactamase, the “AmpC counter-screen result” value is given as “likely aggregators”, the AmpC aggregation counter-screen result was “Detergent-sensitive (activator)” and the inhibition at 10 µM is -63 ± 26%.

Regarding Garcinol [Compound 13], the Quenching counter-screen entry in data set [1] is listed as “Flagged (Significant fluorescence quenching was defined as signal reduction greater than 25% of the corresponding fluorophore signal at any test compound concentration)”. The Fluorescence counter-screen entry in data set [2] is “Negative”. Also, in “Absorbance spectra”, the “Absorption max (nm)” value stood at 290 nm and the Absorbance counter-screen entry was “Negative”. Also, the AmpC aggregation counter-screen result at AmpC β-lactamase is given as “Detergent-sensitive (Aggregators were defined as compounds with significant detergent-dependent changes in AmpC activity (t-test, adjusted P-value <0.05; mean differences greater than 30%))”.

For the origin of these results see PMC5688144, “Assay interference and off-target liabilities of reported histone acetyltransferase inhibitors” (Nature Communications, 2017).
